Test results as given in US20100298141A1, “SUBSTITUTED PYRIDINE N-OXIDE HERBICIDES” (E. I. DU PONT DE NEMOURS AND COMPANY, priority 2007, published 2010).

Experiments:
[1] = tested on: common (oilseed) sunflower; assay: Test C pre-/postemergence test; assay type: in vivo, Helianthus annuus; conditions: Preemergence; for Sunflower plant response rating: 62 g ai/ha, scale 0 to 100
How it was run: (§1)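 Compounds in a non-phytotoxic solvent with surfactant applied preemergence to seeded pots and, at the same time, postemergence to plants 2–18 cm tall (1- to 4-leaf stage). Paddy tests: pots flooded to 3 cm, compound applied into the water, depth held throughout.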

Italian ryegrass = assay: Test C pre-/postemergence test; assay type: in vivo, Lolium multiflorum; conditions: Preemergence; for Ryegrass, Italian plant response rating: 62 g ai/ha, scale 0 to 100; for Plant response rating, Ryegrass, Italian: 31 g ai/ha, scale 0 to 100 (0 no effect, 100 complete control)
How it was run: as §1

blackgrass = assay: Test C pre-/postemergence test; assay type: in vivo, Alopecurus myosuroides; conditions: for Plant response rating, Blackgrass: 31 g ai/ha, scale 0 to 100 (0 no effect, 100 complete control); for Plant response rating (0 to 100), Blackgrass: 250 g ai/ha
How it was run: as §1

pigweed = assay: Test C pre-/postemergence test; assay type: in vivo, Amaranthus retroflexus; conditions: Preemergence; for Pigweed plant response rating: 62 g ai/ha, scale 0 to 100; for Plant response rating, Pigweed: 31 g ai/ha, scale 0 to 100 (0 no effect, 100 complete control)
How it was run: as §1

corn = assay: Test C pre-/postemergence test; assay type: in vivo, Zea mays; conditions: for Plant response rating, Corn: 31 g ai/ha, scale 0 to 100 (0 no effect, 100 complete control); for Plant response rating (0 to 100), Corn: 250 g ai/ha
How it was run: as §1

yellow nutsedge = assay: Test C pre-/postemergence test; assay type: in vivo, Cyperus esculentus; conditions: Preemergence; for Nutsedge, Yellow plant response rating: 62 g ai/ha, scale 0 to 100; for Plant response rating, Nutsedge, Yellow: 31 g ai/ha, scale 0 to 100 (0 no effect, 100 complete control)
How it was run: as §1

kochia = assay: Test C pre-/postemergence test; assay type: in vivo, Kochia scoparia; conditions: Preemergence; for Kochia plant response rating: 62 g ai/ha, scale 0 to 100; for Plant response rating, Kochia: 31 g ai/ha, scale 0 to 100 (0 no effect, 100 complete control)
How it was run: as §1

green foxtail = assay: Test C pre-/postemergence test; assay type: in vivo, Setaria viridis; conditions: Preemergence; for Foxtail, Green plant response rating: 62 g ai/ha, scale 0 to 100; for Plant response rating, Foxtail, Green: 31 g ai/ha, scale 0 to 100 (0 no effect, 100 complete control); for Plant response rating (0 to 100), Foxtail, Green: 250 g ai/ha
How it was run: as §1

soybean = assay: Test C pre-/postemergence test; assay type: in vivo, Glycine max; conditions: Preemergence; for Soybean plant response rating: 62 g ai/ha, scale 0 to 100
How it was run: as §1

barnyardgrass = assay: Test A pre-/postemergence greenhouse test; assay type: in vivo, Echinochloa crus-galli; conditions: for Barnyardgrass plant response rating: 0 to 100 scale; for Plant response rating, Barnyardgrass: 0 to 100 scale where 0 is no effect and 100 is complete control
How it was run: (§2)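 Visual injury ratings against untreated controls, taken roughly ten days after treatment in greenhouse. Plants were sprayed postemergence at one- to two-leaf stage (2–10 cm tall); at the same time, seeded loam/sand soil received a directed preemergence spray. Formulation: non-phytotoxic solvent mixture with surfactant.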

morningglory [2] = assay: Test C pre-/postemergence test; assay type: in vivo, Ipomoea coccinea; conditions: Preemergence; for Morningglory plant response rating: 62 g ai/ha, scale 0 to 100; for Plant response rating, Morningglory: 31 g ai/ha, scale 0 to 100 (0 no effect, 100 complete control)
How it was run: as §1

morningglory [3] = assay: Test A pre-/postemergence greenhouse test; assay type: in vivo, Ipomoea spp.; conditions: for Morningglory plant response rating: 0 to 100 scale; for Plant response rating, Morningglory: 0 to 100 scale where 0 is no effect and 100 is complete control
How it was run: as §2

cocklebur = assay: Test C pre-/postemergence test; assay type: in vivo, Xanthium strumarium; conditions: for Plant response rating, Cocklebur: 31 g ai/ha, scale 0 to 100 (0 no effect, 100 complete control)
How it was run: as §1

wheat = assay: Test C pre-/postemergence test; assay type: in vivo, Triticum aestivum; conditions: Preemergence; for Wheat plant response rating: 62 g ai/ha, scale 0 to 100; for Plant response rating, Wheat: 31 g ai/ha, scale 0 to 100 (0 no effect, 100 complete control)
How it was run: as §1

umbrella sedge = assay: Test C flooded paddy test; assay type: in vivo, Cyperus difformis; conditions: Flood
How it was run: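 Ratings were visual and made relative to untreated controls after 13 to 15 greenhouse days.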

woolly cupgrass = assay: Test C pre-/postemergence test; assay type: in vivo, Eriochloa villosa; conditions: Preemergence; for Cupgrass, Woolly plant response rating: 62 g ai/ha, scale 0 to 100; for Plant response rating, Cupgrass, Woolly: 31 g ai/ha, scale 0 to 100 (0 no effect, 100 complete control); for Plant response rating (0 to 100), Cupgrass, Woolly: 250 g ai/ha
How it was run: as §1

crabgrass = assay: Test C pre-/postemergence test; assay type: in vivo, Digitaria sanguinalis; conditions: Preemergence; for Crabgrass, Large plant response rating: 62 g ai/ha, scale 0 to 100; for Plant response rating, Crabgrass, Large: 31 g ai/ha, scale 0 to 100 (0 no effect, 100 complete control); for Plant response rating (0 to 100), Crabgrass, Large: 250 g ai/ha
How it was run: as §1

[4] = 62 g ai/ha, Preemergence, scale 0 to 100
[5] = preemergence, 125 g ai/ha, scale 0 (no effect) to 100 (complete control)
[6] = Postemergence, 125 g ai/ha, 0 is no effect, 100 is complete control
[7] = Postemergence, 500 g ai/ha, 0 is no effect, 100 is complete control
[8] = Preemergence, 125 g ai/ha, 0 no effect, 100 complete control
[9] = 31 g ai/ha, scale 0 to 100 (0 no effect, 100 complete control)
[10] = 62 g ai/ha, scale 0 to 100, 0 no effect, 100 complete control, 13 to 15 days
[11] = 125 g ai/ha, scale 0 to 100, 0 no effect, 100 complete control, 13 to 15 days
[12] = 250 g ai/ha, scale 0 to 100, 0 no effect, 100 complete control, 13 to 15 days

CC(c1c(C(F)(F)F)nn(C)c1OCC(F)(F)F)S(=O)(=O)c1cccc[n+]1[O-] (racemic) [Compound 33]
Sunflower plant response rating [1]: 0
Ryegrass, Italian plant response rating (Italian ryegrass): 80
Plant response rating, Ryegrass, Italian (Italian ryegrass): 70
Blackgrass plant response rating (blackgrass; [4]): 85
Plant response rating, Blackgrass (blackgrass; Preemergence): 80
Plant response rating (0 to 100), Blackgrass (blackgrass; Preemergence): 100
Blackgrass plant response rating (blackgrass; [5]): 100
Pigweed plant response rating (pigweed): 100
Plant response rating, Pigweed (pigweed): 100
Corn plant response rating (corn; [4]): 90
Plant response rating, Corn (corn; Preemergence): 60
Plant response rating (0 to 100), Corn (corn; Preemergence): 98
Corn plant response rating (corn; [5]): 98
Nutsedge, Yellow plant response rating (yellow nutsedge): 100
Plant response rating, Nutsedge, Yellow (yellow nutsedge): 100
Kochia plant response rating (kochia): 100
Plant response rating, Kochia (kochia): 100
Foxtail, Green plant response rating (green foxtail): 75
Plant response rating, Foxtail, Green (green foxtail): 75
Plant response rating (0 to 100), Foxtail, Green (green foxtail): 100
Soybean plant response rating (soybean): 60
Barnyardgrass plant response rating (barnyardgrass; [6]): 70
Barnyardgrass plant response rating (barnyardgrass; [7]): 100
Barnyardgrass plant response rating (barnyardgrass; [8]): 100
Plant response rating, Barnyardgrass (barnyardgrass; Preemergence, 500 g ai/ha): 100
Morningglory plant response rating (morningglory [2]): 100
Plant response rating, Morningglory (morningglory [2]): 100
Morningglory plant response rating (morningglory [3]; [6]): 60
Morningglory plant response rating (morningglory [3]; [7]): 90
Morningglory plant response rating (morningglory [3]; [8]): 90
Plant response rating, Morningglory (morningglory [3]; Preemergence, 500 g ai/ha): 90
Cocklebur plant response rating (cocklebur; [4]): 0
Plant response rating, Cocklebur (cocklebur; Preemergence): 0
Plant response rating (0 to 100), Cocklebur (cocklebur; Preemergence, 250 g ai/ha): 45
Cocklebur plant response rating (cocklebur; [5]): 40
Wheat plant response rating (wheat): 50
Plant response rating, Wheat (wheat): 30
Plant response rating, Sedge, Umbrella (umbrella sedge; [9]): 80
Plant response rating, Sedge, Umbrella (umbrella sedge; [10]): 90
Plant response rating, Sedge, Umbrella (umbrella sedge; [11]): 95
Plant response rating, Sedge, Umbrella (umbrella sedge; [12]): 95
Cupgrass, Woolly plant response rating (woolly cupgrass): 98
Plant response rating, Cupgrass, Woolly (woolly cupgrass): 85
Plant response rating (0 to 100), Cupgrass, Woolly (woolly cupgrass): 100
Crabgrass, Large plant response rating (crabgrass): 100
Plant response rating, Crabgrass, Large (crabgrass): 100
Plant response rating (0 to 100), Crabgrass, Large (crabgrass): 100

Cn1nc(C(F)(F)F)c(C[S+]([O-])c2ccc(Cl)c[n+]2[O-])c1Cl (racemic) [Compound 17]
Sunflower plant response rating [1]: 5
Plant response rating, Sunflower [1, 9]: 0
Ryegrass, Italian plant response rating (Italian ryegrass): 60
Plant response rating, Ryegrass, Italian (Italian ryegrass): 30
Blackgrass plant response rating (blackgrass; [4]): 80
Plant response rating, Blackgrass (blackgrass; Preemergence): 80
Plant response rating (0 to 100), Blackgrass (blackgrass; Preemergence): 100
Blackgrass plant response rating (blackgrass; [5]): 85
Pigweed plant response rating (pigweed): 100
Plant response rating, Pigweed (pigweed): 100
Corn plant response rating (corn; [4]): 85
Plant response rating, Corn (corn; Preemergence): 60
Plant response rating (0 to 100), Corn (corn; Preemergence): 100
Corn plant response rating (corn; [5]): 98
Nutsedge, Yellow plant response rating (yellow nutsedge): 80
Plant response rating, Nutsedge, Yellow (yellow nutsedge): 70
Kochia plant response rating (kochia): 100
Plant response rating, Kochia (kochia): 80
Foxtail, Green plant response rating (green foxtail): 100
Plant response rating, Foxtail, Green (green foxtail): 70
Plant response rating (0 to 100), Foxtail, Green (green foxtail): 100
Soybean plant response rating (soybean): 20
Plant response rating, Soybean (soybean; [9]): 0
Barnyardgrass plant response rating (barnyardgrass; [6]): 80
Barnyardgrass plant response rating (barnyardgrass; [7]): 90
Barnyardgrass plant response rating (barnyardgrass; [8]): 70
Plant response rating, Barnyardgrass (barnyardgrass; Preemergence, 500 g ai/ha): 100
Morningglory plant response rating (morningglory [2]): 85
Plant response rating, Morningglory (morningglory [2]): 0
Morningglory plant response rating (morningglory [3]; [6]): 10
Morningglory plant response rating (morningglory [3]; [7]): 50
Morningglory plant response rating (morningglory [3]; [8]): 10
Plant response rating, Morningglory (morningglory [3]; Preemergence, 500 g ai/ha): 90
Cocklebur plant response rating (cocklebur; [4]): 0
Plant response rating, Cocklebur (cocklebur; Preemergence): 0
Cocklebur plant response rating (cocklebur; [5]): 0
Wheat plant response rating (wheat): 30
Plant response rating, Wheat (wheat): 10
Plant response rating, Sedge, Umbrella (umbrella sedge; [9]): 60
Plant response rating, Sedge, Umbrella (umbrella sedge; [10]): 85
Plant response rating, Sedge, Umbrella (umbrella sedge; [11]): 95
Plant response rating, Sedge, Umbrella (umbrella sedge; [12]): 95
Cupgrass, Woolly plant response rating (woolly cupgrass): 100
Plant response rating, Cupgrass, Woolly (woolly cupgrass): 95
Plant response rating (0 to 100), Cupgrass, Woolly (woolly cupgrass): 100
Crabgrass, Large plant response rating (crabgrass): 100
Plant response rating, Crabgrass, Large (crabgrass): 98
Plant response rating (0 to 100), Crabgrass, Large (crabgrass): 100
